The structures appear in SMILES notation. Read-outs that look alike come from different tables or passages of the source.

Consider 20 molecules from patent US20230219906A1, “MACROCYCLIC-2-AMINO-3-FLUORO-BUT-3-ENAMIDES AS INHIBITORS OF MCL-1” (Janssen Pharmaceutica NV, priority 2020, published 2023).

Test [1] addresses Myeloid Cell Leukemia 1(Mcl-1) (Homo sapiens, UniProt Q07820). Nature of the test: Terbium labeled Mcl-1 HTRF binding assay with Cy5-labeled BIM BH3 peptide. As to conditions: displacement of Cy5 Bim BH3 peptide; Ki=IC50/(1+[L]/Kd), [L]=8 nM, Kd=10 nM; 60 minutes at room temperature; read-out: Tb-MCL1 Ki. The procedure:
Terbium labeled Myeloid Cell Leukemia 1(Mcl-1) homogeneous time-resolved fluorescence (HTRF) binding assay utilizing the BIM BH3 peptide (H2N—(C/Cy5Mal) WIAQELRRIGDEFN-OH) as the binding partner for Mcl-1.
This assay evaluated inhibition of the BH3 domain: Mcl-1 interaction by measuring the displacement of Cy5-labeled BIM BH3 peptide (H2N—(C/Cy5Mal) WIAQELRRIGDEFN-OH) in the HTRF assay format.
The following assay and stock buffers were prepared for use in the assay: (a) Stock buffer: 10 mM Tris-HCl, pH=7.5+150 mM NaCl, filtered, sterilized, and stored at 4° C.; and (b) 1X assay buffer, where the following ingredients were added fresh to stock buffer: 2 mM dithiothreitol (DTT), 0.0025% Tween-20, 0.1 mg/mL bovine serum albumin (BSA). The 1X Tb-Mcl-1+Cy5 Bim peptide solution was prepared by diluting the protein stock solution using the 1X assay buffer (b) to 25 pM Tb-Mcl-1 and 8 nM Cy5 Bim peptide.
Using the Acoustic ECHO, 100 nL of 100x test compound(s) were dispensed into individual wells of a white 384-well Perkin Elmer Proxiplate, for a final compound concentration of 1× and final DMSO concentration of 1%. Inhibitor control and neutral control (NC, 100 nL of 100% DMSO) were stamped into columns 23 and 24 of assay plate, respectively. Into each well of the plate was then dispensed 10 μL of the 1X Tb-Mcl-1+Cy5 Bim peptide solution. The plate was centrifuged with a cover plate at 1000 rpm for 1 minute, then incubated for 60 minutes at room temperature with plates covered.
The TR-FRET signal was read on an BMG PHERAStar FSX MicroPlate Reader at room temperature using the HTRF optic module (HTRF: excitation: 337 nm, light source: laser, emission A: 665 nm, emission B: 620 nm, integration start: 60 μs, integration time: […]).
The BMG PHERAStar FSX MicroPlate Reader was used to measure fluorescence intensity at two emission wavelengths—665 nm and 620 nm—and report relative fluorescence units (RFU) for both emissions, as well as a ratio of the emissions (665 nm/620 nm)*10,000. The RFU values were normalized to percent inhibition as follows:
% inhibition=(((NC−IC)−(compound−IC))/(NC−IC))*100
where IC (inhibitor control, low signal)= mean signal of 1X Tb-MCl-1+Cy5 Bim peptide+inhibitor control or 100% inhibition of Mcl-1; NC (neutral control, high signal)= mean signal 1X Tb-MCl-1+Cy5 Bim peptide with DMSO only or 0% inhibition An 11-point dose response curve was generated to determine IC50 values (using GenData) based on the following equation:
Y=Bottom+(Top−Bottom)/(1+10∧((log IC50−X)*HillSlope))
where Y=% inhibition in the presence of X inhibitor concentration; Top=100% inhibition derived from the IC (mean signal of Mcl-1+inhibitor control); Bottom=0% inhibition derived from the NC (mean signal of Mcl-1+DMSO); Hillslope=Hill coefficient; and IC50=concentration of compound with 50% inhibition in relation to top/neutral control (NC).
In this assay [L]=8 nM and Kd=10 nM
In general terms: TR-FRET usually uses a lanthanide donor and a delayed reading to cut background.

The subject of test [2] is MOLP-8 human multiple myeloma cell line. Put plainly: Caspase-Glo 3/7 apoptosis induction assay in MOLP-8 cells. Format: cell-based. To be noted: caspase-3/7 activity, 2 hours at 37° C., averaged over all runs on all batches, read-out: MOLP8 AC50. The source says:
MCL-1 is a regulator of apoptosis and is highly over-expressed in tumor cells that escape cell death. The assay evaluates the cellular potency of small-molecule compounds targeting regulators of the apoptosis pathway, primarily MCL-1, Bfl-1, Bcl-2, and other proteins of the Bcl-2 family. Protein-protein inhibitors disrupting the interaction of anti-apoptotic regulators with BH3-domain proteins initiate apoptosis.
The Caspase-Glo® 3/7 Assay is a luminescent assay that measures caspase-3 and −7 activities in purified enzyme preparations or cultures of adherent or suspension cells. The assay provides a proluminescent caspase-3/7 substrate, which contains the tetrapeptide sequence DEVD. This substrate is cleaved to release aminoluciferin, a substrate of luciferase used in the production of light. Addition of the single Caspase-Glo® 3/7 Reagent in an “add-mix-measure” format results in cell lysis, followed by caspase cleavage of the substrate and generation of a “glow-type” luminescent signal.
This assay uses the MOLP-8 human multiple myeloma cell line, which is sensitive to MCL-1 inhibition.
Cell cultures were maintained between 0.2 and 2.0×10^6 cells/mL. The cells were harvested by collection in 50 mL conical tubes. The cells were then pelleted at 500 g for 5 mins before removing supernatant and resuspension in fresh pre-warmed culture medium. The cells were counted and diluted as needed.
The assay reagent was prepared by transferring the buffer solution to the substrate vial and mixing. The solution may be stored for up to 1 week at 4° C. with negligible loss of signal.
Compounds were delivered in assay-ready plates (Proxiplate) and stored at −20° C. Assays always include 1 reference compound plate containing reference compounds. The plates were spotted with 40 nL of compounds (0.5% DMSO final in cells; serial dilution; […] highest conc. 1/3 dilution, 10 doses, duplicates). The compounds were used at room temperature and 4 μL of pre-warmed media was added to all wells except column 2 and 23. The negative control was prepared by adding 1% DMSO in media. The positive control was prepared by adding the appropriate positive control compound in final concentration of […] in media. The plate was prepared by adding 4 μL negative control to column 23, 4 μL positive control to column 2 and 4 μL cell suspension to all wells in the plate. The plate with cells was then incubated at 37° C. for 2 hours. The assay signal reagent is the Caspase-Glo solution described above, and 8 μL was added to all wells. The plates were then sealed and measured after 30 minutes.
The activity of a test compound was calculated as percent change in apoptosis induction as follows:
% Effect (AC50)=100−(sample-LC)/(HC-LC)*100
% Control=(sample/HC)*100
% Control min=(sample-LC)/(HC-LC)*100

Sequence of Myeloid Cell Leukemia 1(Mcl-1) (Q07820 whole entry): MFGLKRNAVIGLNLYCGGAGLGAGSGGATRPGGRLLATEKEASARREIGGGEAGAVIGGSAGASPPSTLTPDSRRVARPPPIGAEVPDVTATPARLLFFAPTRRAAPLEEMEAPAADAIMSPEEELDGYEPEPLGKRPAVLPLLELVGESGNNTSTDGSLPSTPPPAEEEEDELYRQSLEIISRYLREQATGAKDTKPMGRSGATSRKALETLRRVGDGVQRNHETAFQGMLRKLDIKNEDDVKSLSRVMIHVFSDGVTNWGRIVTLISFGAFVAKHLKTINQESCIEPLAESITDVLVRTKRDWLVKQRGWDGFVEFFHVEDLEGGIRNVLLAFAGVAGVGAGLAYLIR

Turning to `C[C@@H]1[C@@H](C)C/C=C(\F)[C@H](C(=O)N(CCO)CCN2CCOCC2)N2CCC[C@H]2CN2C[C@@]3(CCCc4cc(Cl)ccc43)COc3ccc(cc32)C(=O)NS1(=O)=O` [Compound 74], the inhibition constant (Ki) in test [1] is 0.02 nM. Further, the AC50 in test [2] (Homo sapiens, MOLP-8, 2 h) is 436 nM.
The like results for `C[C@@H]1[C@@H](C)C/C=C(\F)[C@@H](C(=O)N(C)CCN2CCOCC2)N2CCC[C@H]2CN2C[C@@]3(CCCc4cc(Cl)ccc43)COc3ccc(cc32)C(=O)NS1(=O)=O` (single isomer, unassigned) [Compound 33] were, in that order, 0.195 nM and 218 nM.
Turning to `C[C@@H]1[C@@H](C)C/C=C(\F)[C@H](C(=O)N(C)C2CCOC2)N2CCC[C@H]2CN2C[C@@]3(CCCc4cc(Cl)ccc43)COc3ccc(cc32)C(=O)NS1(=O)=O` (single isomer, unassigned) [Compound 69], the inhibitory constant (Ki) in test [1] stood at 0.049 nM. For the same molecule, the AC50 in test [2] (Homo sapiens, MOLP-8, 2 h) was 118 nM.
As to `C[C@@H]1[C@@H](C)C/C=C(\F)[C@H](C(=O)N(C)CC2CCOC2)N2CCC[C@H]2CN2C[C@@]3(CCCc4cc(Cl)ccc43)COc3ccc(cc32)C(=O)NS1(=O)=O` (single isomer, unassigned) [Compound 57], the Ki in test [1] was 0.051 nM. In addition, the concentration at half-maximal activity (AC50) in test [2] amounted to 84.4 nM.
Turning to `COC1(C(F)(F)F)CN(C(=O)[C@H]2/C(F)=C/C[C@H](C)[C@@H](C)S(=O)(=O)NC(=O)c3ccc4c(c3)N(C[C@@H]3CCCN32)C[C@@]2(CCCc3cc(Cl)ccc32)CO4)C1` [Compound 42], the Ki in test [1] is 0.374 nM. In addition, in test [2] (Homo sapiens, MOLP-8, 2 h), the AC50 stood at 463 nM.
Turning to `COCCN(CCOC)C(=O)[C@H]1/C(F)=C/C[C@H](C)[C@@H](C)S(=O)(=O)NC(=O)c2ccc3c(c2)N(C[C@@H]2CCCN21)C[C@@]1(CCCc2cc(Cl)ccc21)CO3` [Compound 39], the Ki in test [1] amounted to 0.081 nM. For the same molecule, the AC50 in test [2] (Homo sapiens, MOLP-8, 2 h) was found to be 19.7 nM.
The corresponding values for `C[C@@H]1[C@@H](C)C/C=C(\F)[C@H](C(=O)N2CC[C@@H](C#N)C2)N2CCC[C@H]2CN2C[C@@]3(CCCc4cc(Cl)ccc43)COc3ccc(cc32)C(=O)NS1(=O)=O` [Compound 47] are 0.065 nM and 241 nM.
The like results for `C[C@@H]1[C@@H](C)C/C=C(\F)[C@H](C(=O)N2C[C@H]3C[C@@H]2CO3)N2CCC[C@H]2CN2C[C@@]3(CCCc4cc(Cl)ccc43)COc3ccc(cc32)C(=O)NS1(=O)=O` [Compound 9] were, in that order, 0.13 nM and 180 nM.
The corresponding values for `C[C@@H]1[C@@H](C)C/C=C(\F)[C@H](C(=O)N(C)Cc2nnn(C)n2)N2CCC[C@H]2CN2C[C@@]3(CCCc4cc(Cl)ccc43)COc3ccc(cc32)C(=O)NS1(=O)=O` [Compound 67] are 0.037 nM and 120 nM.
Consider `C[C@@H]1[C@@H](C)C/C=C(\F)[C@H](C(=O)N2C[C@@H]3OCCO[C@@H]3C2)N2CCC[C@H]2CN2C[C@@]3(CCCc4cc(Cl)ccc43)COc3ccc(cc32)C(=O)NS1(=O)=O` [Compound 53], for which the Ki in test [1] was 0.069 nM. In test [2] (Homo sapiens, MOLP-8, 2 h), the concentration at half-maximal activity (AC50) came out at 169 nM.
The corresponding values for `CCS(=O)(=O)CCN(C)C(=O)[C@H]1/C(F)=C/C[C@H](C)[C@@H](C)S(=O)(=O)NC(=O)c2ccc3c(c2)N(C[C@@H]2CCCN21)C[C@@]1(CCCc2cc(Cl)ccc21)CO3` [Compound 82] are 0.025 nM and 557 nM.
The corresponding values for `C[C@@H]1[C@@H](C)C/C=C(\F)[C@H](C(=O)N(C)CC2CCOC2)N2CCC[C@H]2CN2C[C@@]3(CCCc4cc(Cl)ccc43)COc3ccc(cc32)C(=O)NS1(=O)=O` (single isomer, unassigned) [Compound 56] are 0.038 nM and 89.4 nM.
The like results for `C[C@@H]1[C@@H](C)C/C=C(\F)[C@H](C(=O)N2CCC3(CCCCC3)C2)N2CCC[C@H]2CN2C[C@@]3(CCCc4cc(Cl)ccc43)COc3ccc(cc32)C(=O)NS1(=O)=O` [Compound 32] were, in that order, 0.603 nM and 478 nM.
Consider `C[C@@H]1[C@@H](C)C/C=C(\F)[C@H](C(=O)N(C)CC2CCOCC2)N2CCC[C@H]2CN2C[C@@]3(CCCc4cc(Cl)ccc43)COc3ccc(cc32)C(=O)NS1(=O)=O` [Compound 22], for which the Ki in test [1] amounted to 0.047 nM. Also, in test [2] (Homo sapiens, MOLP-8, 2 h), the AC50 came out at 56.7 nM.
Consider `C[C@@H]1[C@@H](C)C/C=C(\F)[C@H](C(=O)N2CCOCC2)N2CCC[C@H]2CN2C[C@@]3(CCCc4cc(Cl)ccc43)COc3ccc(cc32)C(=O)NS1(=O)=O` [Compound 8], for which, in test [1], the Ki is 0.074 nM. Also, the AC50 in test [2] (Homo sapiens, MOLP-8, 2 h) stood at 141 nM.
The corresponding values for `C[C@@H]1[C@@H](C)C/C=C(\F)[C@H](C(=O)N(C)CCO)N2CCC[C@H]2CN2C[C@@]3(CCCc4cc(Cl)ccc43)COc3ccc(cc32)C(=O)NS1(=O)=O` [Compound 27] are 0.054 nM and 396 nM.
The like results for `C[C@@H]1[C@@H](C)C/C=C(\F)[C@H](C(=O)N2CCN(C)C3(CC3)C2)N2CCC[C@H]2CN2C[C@@]3(CCCc4cc(Cl)ccc43)COc3ccc(cc32)C(=O)NS1(=O)=O` [Compound 83] were, in that order, 0.061 nM and 252 nM.
The like results for `COCCN(CCN1CCOCC1)C(=O)[C@H]1/C(F)=C/C[C@H](C)[C@@H](C)S(=O)(=O)NC(=O)c2ccc3c(c2)N(C[C@@H]2CCCN21)C[C@@]1(CCCc2cc(Cl)ccc21)CO3` [Compound 76] were, in that order, 0.017 nM and 36.7 nM.
For `C[C@@H]1[C@@H](C)C/C=C(\F)[C@H](C(=O)N(C)CCC2CCOCC2)N2CCC[C@H]2CN2C[C@@]3(CCCc4cc(Cl)ccc43)COc3ccc(cc32)C(=O)NS1(=O)=O` (single isomer, unassigned) [Compound 2], in test [1], the Ki was determined as 0.089 nM. The half-maximal activity concentration (AC50) in test [2] (Homo sapiens, MOLP-8, 2 h) was determined as 89.2 nM.
The corresponding values for `C[C@@H]1[C@@H](C)C/C=C(\F)[C@H](C(=O)N(C)CCOC2CCOCC2)N2CCC[C@H]2CN2C[C@@]3(CCCc4cc(Cl)ccc43)COc3ccc(cc32)C(=O)NS1(=O)=O` [Compound 35] are 0.066 nM and 90.1 nM.

As usually defined, the Ki is a measure of affinity in units of concentration, obtained from inhibition or displacement. As a reminder, the AC50 is the concentration at which the activity in the assay is half-maximal.
